# Experimental data taken from the supplement of paper PMC7444282.
# Tests used:
# [1] = system: Vero E6; experiment: cytotoxicity maximal efficacy (% viability loss, DMSO = 0%, hyamine = 100%); higher = more cytotoxic; conditions: virus: none (uninfected); 72 h
# Description: (§1)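 Read-out is CellTiter-Glo ATP luminescence, normalised to DMSO-only wells (0% rescue) and no-virus wells (100% rescue). The cytotoxicity counter-assay used the same protocol without virus, normalised to DMSO (100% viability) and hyamine (0% viability). Confirmation used 8-point 1:3 titrations in duplicate, fitted to a four-parameter Hill equation.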
# [2] = system: Vero E6; experiment: cytotoxicity CC50 (uninfected Vero E6, ATP content); higher = less cytotoxic; conditions: virus: none (uninfected); 72 h
# Description: as §1
# [3] = system: Vero E6; experiment: CPE rescue EC50 (SARS-CoV-2 infected Vero E6); higher = less potent antiviral; conditions: virus: SARS-CoV-2 USA_WA1/2020, MOI 0.002; 72 h
# Description: as §1
SMILES,cytotoxicity maximal efficacy [1],cytotoxicity CC50 [2],CPE rescue EC50 [3]
CCC[C@@H](C=O)NC(=O)[C@H](CC(C)C)NC(=O)[C@H](CC(C)C)NC(=O)OCc1ccccc1,115%,1130 nM,
COCCN1CCN(Cc2ccc(-c3n[nH]c4c3C(=O)c3c(NC(=O)NN5CCOCC5)cccc3-4)cc2)CC1,,316 nM,
CC1(C)CC(=O)c2c(C(F)(F)F)nn(-c3ccc(C(N)=O)c(N[C@H]4CC[C@H](OC(=O)CN)CC4)c3)c2C1,,562 nM,
NC(=O)c1ccccc1Nc1ccnc(Nc2cccc(O)c2)n1,,1000 nM,
CC(C)[C@H]1C(=O)N[C@H](CO)Cc2c[nH]c3cccc(c23)N1C,20.4%,1240 nM,
CO/C1=C\C(C)=C\[C@@H](C)[C@@H](O)[C@@H](C)C/C(C)=C/C=C\[C@H](OC)C([C@@H](C)[C@@H](O)[C@H](C)[C@@]2(O)C[C@@H](O)[C@H](C)C(C(C)C)O2)OC1=O (stereo partly specified),,101 nM,
Cn1c(Nc2ccc(C(F)(F)F)cc2)nc2cc(Oc3ccnc(-c4ncc(C(F)(F)F)[nH]4)c3)ccc21,,316 nM,794 nM
CC(=O)OC[C@]12C[C@H](OC(=O)CC(C)C)C(C)=C[C@H]1O[C@@H]1[C@H](O)[C@@H](O)[C@@]2(C)[C@]12CO2,,127 nM,
c1ccc2c(-c3cnn4cc(-c5ccc(OCCN6CCOCC6)cc5)cnc34)ccnc2c1,29.1%,5520 nM,
COC[C@H]1OC(=O)/C(=C/N(C)CCCN(C)C)C2=C(O)C(=O)C3=C([C@H](OC(C)=O)C[C@]4(C)[C@@H](O)CC[C@@H]34)[C@]21C,62.1%,8910 nM,
Cn1cc(-c2ccc(-c3cncc(Cl)c3N3CCC4(CCNC4=O)CC3)cc2)cn1,,282 nM,
C(=N\Nc1nc(Nc2ccccc2)nc(N2CCOCC2)n1)/c1c[nH]c2ccccc12,,,113 nM
CC(C)C[C@H](NC(=O)[C@H](Cc1ccccc1)NC(=O)OCc1ccccc1)C(=O)C=O,33.4%,11200 nM,
C/C(=N\NC(=O)c1cccc(S(=O)(=O)N2CCOCC2)c1)c1cc(Cl)ccc1O,,1000 nM,
CC(C)(N)c1ccc(-c2nc3ccccc3nc2-c2ccccc2)cc1,34.2%,12600 nM,
N#Cc1ccc(O[C@@H]2c3ccccc3C[C@H]2N2CCC[C@@H](N)C2)c(Cl)c1,52.9%,12600 nM,
C/C(=N\Nc1nnc2c(n1)[nH]c1c(C)cccc12)c1ccccn1,76.3%,355 nM,
O=c1cc(-c2cccc3c2Sc2ccccc2S3)oc(N2CCOCC2)c1,42.6%,10000 nM,
CCC(C)C(=O)OC12C(OC(C)=O)C(C)C3(O)C(C=C(CO)CC4(O)C(=O)C(C)=CC43)C1C2(C)C (stereo unspecified),,,982 nM
C/C=C(\C)C(=O)OC1C(C)C2(O)C3C=C(C)C(=O)C3CC(CO)=CC2C2C(C)(C)C12OC(C)=O (stereo unspecified),,348 nM,
O=S(=O)(Cc1ccccc1)Nc1ccc(-c2ccc3c(cnn3-c3ccc(F)cc3)c2)c(C(F)(F)F)c1,24.3%,14100 nM,
C[C@@H]1O[C@@H](O[C@H]2[C@H](OC(=O)[C@]34CCC(C)(C)C[C@H]3C3=CCC5[C@@]6(C)CC[C@H](O[C@@H]7O[C@H](CO[C@@H]8OC[C@H](O)[C@H](O)[C@H]8O)[C@@H](O)[C@H](O)[C@H]7O)C(C)(C)C6CC[C@@]5(C)[C@]3(C)C[C@H]4O)OC[C@@H](O)[C@@H]2O)[C@H](O)[C@H](O[C@@H]2OC[C@](O)(CO)[C@H]2O)[C@H]1O[C@@H]1OC[C@H](O)[C@H](O[C@@H]2OC[C@@H](O)[C@H](O)[C@H]2O)[C@H]1O (stereo partly specified),,,955 nM
CC(C)C(=O)O[C@H]1[C@@H]2[C@H](C)C(=O)O[C@@H]2C[C@@H](C)[C@@H]2C=CC(=O)[C@]21C,34.2%,12600 nM,
CN(CCc1ccc(Nc2ncc(-c3cccnc3)s2)cc1)Cc1ccccc1,44.4%,12600 nM,

SMILES,cytotoxicity maximal efficacy [1],cytotoxicity CC50 [2],CPE rescue EC50 [3]
CCOc1ccc(-c2nc(-c3cccc4c3CCC4NCCO)no2)cc1OCC (stereo unspecified),,631 nM,
COc1ccccc1OCCNCC(O)CCOc1cccc2[nH]c3ccccc3c12 (stereo unspecified),16.2%,10000 nM,
Cn1cc(S(=O)(=O)c2ccc(Cl)cc2)c2cccc(N3CCNCC3)c21,48.3%,11200 nM,
OC1CCC(Oc2cccc3cnc(Nc4ccc5nc[nH]c5c4)nc23)CC1 (stereo unspecified),50.5%,891 nM,
c1ccc(-c2ccc(CNc3nc(-c4ccccn4)nnc3-c3ccccc3)cc2)cc1,,562 nM,631 nM
CN(CCCNC(=O)c1ccc2nc3c(c(Cl)c2c1)CCCC3)Cc1ccccc1,39.1%,12600 nM,
COc1c(C)cnc(Cn2cnc3c(Cl)nc(N)nc32)c1C,,355 nM,
C[C@@H]1O[C@@H](O[C@@H]2[C@@H](O)[C@H](O[C@@H]3[C@@H](O)[C@@H](O)[C@H](O[C@H]4[C@H](OC(=O)[C@]56CCC(C)(C)C[C@H]5C5=CCC7[C@@]8(C)C[C@H](O)[C@H](O[C@@H]9O[C@@H](C)[C@H](O)[C@@H](O)[C@H]9O)[C@@](C)(CO)C8CC[C@@]7(C)[C@]5(C)C[C@H]6O)O[C@H](C)[C@H](O)[C@@H]4O)O[C@H]3C)OC[C@H]2O)[C@H](O)[C@H](O)[C@H]1O (stereo partly specified),,,851 nM
O[C@H]1[C@H]2c3cc4c(cc3CN3CCC(=C[C@@H]1O)[C@H]23)OCO4,,,631 nM
COc1ccc2c(Oc3ccc(NC(=O)c4c(C)n(CC(C)(C)O)n(-c5ccccc5)c4=O)cc3F)ccnc2c1,70.3%,14100 nM,
CC(=NNC(=S)N1CCC1)c1ccccn1,,355 nM,
CC(=O)c1c(OCCN2CCCCC2)c(OCCC(C)c2ccc(F)cc2)c2oc(C)nc2c1C (stereo unspecified),33.2%,14100 nM,
COc1ccc2sc(NC(c3ccc(OC(F)F)cc3)c3ccc4cccnc4c3O)nc2c1 (stereo unspecified),,708 nM,891 nM
OCCCNc1cc(-c2ccnc(Nc3cccc(Cl)c3)n2)ccn1,,112 nM,
O=S(=O)(NCC1CC1)c1ccc(Nc2nccc(N3CCCc4cc(O)ccc43)n2)cc1,,,794 nM
CCc1ccc(/C=C2/SC(=S)NC2=O)cc1,34.2%,12600 nM,
COC(=O)[C@@]12OC[C@]34[C@H]([C@@H](O)[C@@H]1O)[C@@]1(C)CC(=O)C(O)=C(C)[C@@H]1C[C@H]3OC(=O)[C@H](OC(=O)/C=C(\C)C(C)C)[C@@H]24,,142 nM,
O=C(c1ccc(-c2ccc(Cl)cc2)o1)N(Cc1ccccn1)c1ccc(N2CCNCC2)cc1,95.2%,11200 nM,
O=C(O)c1ccc(CCCc2ccc(OCCc3ccc(F)cc3)cc2)o1,,,141 nM
CC(C)(C[C@@](O)(Cc1cc2ccncc2[nH]1)C(F)(F)F)c1cc(F)ccc1O,22.4%,15800 nM,
CN(C)c1cc2c(cc1Sc1nc3c(N)nccc3n1CCNCC(C)(C)C)OCO2,,708 nM,
C[C@@H]1O[C@@H](O[C@H]2[C@H](OC(=O)[C@]34CCC(C)(C)C[C@H]3C3=CCC5[C@@]6(C)CC[C@H](O[C@@H]7O[C@H](CO[C@@H]8OC[C@H](O)[C@H](O)[C@H]8O)[C@@H](O)[C@H](O)[C@H]7O)C(C)(C)C6CC[C@@]5(C)[C@]3(C)C[C@H]4O)OC[C@@H](O)[C@@H]2O)[C@H](O)[C@H](O)[C@H]1O[C@@H]1OC[C@H](O)[C@H](O[C@@H]2OC[C@@H](O)[C@H](O)[C@H]2O)[C@H]1O (stereo partly specified),,,602 nM
COc1ccc(-c2csc(NC(=O)[C@H]3CCCCN3S(=O)(=O)c3ccc(C)cc3)n2)cc1,,2000 nM,
